In ChEMBL document CHEMBL1156282, “4-Substituted-7-azaindoles bearing a ureidobenzofuranone moiety as potent and selective, ATP-competitive inhibitors of the mammalian target of rapamycin (mTOR)” (Bioorg Med Chem Lett, 2010) one finds IC50 and Ratio IC50 data, which are given here for 27 molecules.

The subject of one test is LNCaP. Briefly: Antiproliferative activity against human LNCAP cells. The class given is functional, cell-based.
Test [1] deals with Phosphatidylinositol 4,5-bisphosphate 3-kinase catalytic subunit alpha isoform (Homo sapiens, UniProt P42336). In words: Inhibition of PI3Kalpha.
Chain of Phosphatidylinositol 4,5-bisphosphate 3-kinase catalytic subunit alpha isoform (P42336 whole entry, canonical isoform): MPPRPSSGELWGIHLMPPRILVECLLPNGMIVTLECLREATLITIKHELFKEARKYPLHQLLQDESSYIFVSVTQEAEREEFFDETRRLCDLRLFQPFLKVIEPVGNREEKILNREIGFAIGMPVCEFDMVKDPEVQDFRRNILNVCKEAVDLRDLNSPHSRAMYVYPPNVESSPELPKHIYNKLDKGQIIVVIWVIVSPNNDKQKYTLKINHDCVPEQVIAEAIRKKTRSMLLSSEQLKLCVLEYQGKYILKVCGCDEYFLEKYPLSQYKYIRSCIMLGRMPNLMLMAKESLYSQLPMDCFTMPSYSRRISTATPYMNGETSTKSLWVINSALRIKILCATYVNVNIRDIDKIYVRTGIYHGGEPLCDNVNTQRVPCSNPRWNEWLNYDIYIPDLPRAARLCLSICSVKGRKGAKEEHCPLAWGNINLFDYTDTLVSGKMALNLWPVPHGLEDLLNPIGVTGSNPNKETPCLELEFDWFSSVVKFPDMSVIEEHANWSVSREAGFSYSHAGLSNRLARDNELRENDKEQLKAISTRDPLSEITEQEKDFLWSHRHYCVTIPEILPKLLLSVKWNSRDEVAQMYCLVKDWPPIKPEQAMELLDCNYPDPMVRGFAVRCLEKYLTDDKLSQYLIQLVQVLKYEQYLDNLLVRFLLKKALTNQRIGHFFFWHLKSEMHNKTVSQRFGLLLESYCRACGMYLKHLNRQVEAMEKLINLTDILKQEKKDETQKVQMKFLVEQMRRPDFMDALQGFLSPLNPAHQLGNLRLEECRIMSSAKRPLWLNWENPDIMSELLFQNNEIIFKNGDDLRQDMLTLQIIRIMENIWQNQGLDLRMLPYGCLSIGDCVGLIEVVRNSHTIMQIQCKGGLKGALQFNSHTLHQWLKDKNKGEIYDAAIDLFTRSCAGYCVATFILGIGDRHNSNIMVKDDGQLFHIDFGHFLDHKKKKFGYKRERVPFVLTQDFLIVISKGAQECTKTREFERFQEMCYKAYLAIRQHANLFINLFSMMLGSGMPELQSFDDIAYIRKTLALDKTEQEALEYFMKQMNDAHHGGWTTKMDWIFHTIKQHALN
A short description of test [2]: Selectivity ratio of IC50 for PI3Kalpha to IC50 for mTOR.
Test [3] deals with Serine/threonine-protein kinase mTOR (Homo sapiens, UniProt P42345). Briefly: Inhibition of mTOR.

Where only a bound is given, the exact number is not on record here.

One may read the IC50 as the concentration that inhibits the measured activity by half. Read a high IC50 as a need for much substance.

`Cn1cc(/C=C2\Oc3ccc(NC(=O)Nc4cccnc4)cc3C2=O)c2c(N3CCOCC3)ccnc21`: half-maximal inhibition in the test with LNCaP (IC50) was put at 50 nM. That is a double-digit nanomolar value.

As for `Cn1cc(/C=C2\Oc3ccc(NC(=O)Nc4cccnc4)cc3C2=O)c2c(N3CCC(C(=O)N4CC5CCC(C4)O5)CC3)ccnc21`, in the test on LNCaP, the IC50 was 90 nM.

`Cn1cc(/C=C2\Oc3ccc(NC(=O)Nc4cccnc4)cc3C2=O)c2c(N3CC4CCC3CO4)ccnc21` (configuration not stated): the results for the IC50 (in test [1]; in the test with LNCaP) were 249 nM and 1.8 nM, respectively.

As for `CNC(=O)Nc1ccc2c(c1)C(=O)/C(=C/c1cn(C)c3nccc(N4CC5CCC(C4)O5)c13)O2`, the IC50 in the test with LNCaP was found to be 140 nM.

In the case of `Cn1cc(/C=C2\Oc3ccc(NC(=O)Nc4ccccc4)cc3C2=O)c2c(N3CC4CCC(C3)O4)ccnc21`, the Ratio IC50 in test [2] is 3.4. In addition, the midpoint of inhibition in the test with LNCaP, the IC50, lay at 280 nM.

For the molecule `Cn1cc(/C=C2\Oc3ccc(NC(=O)Nc4ccc(N5CCOCC5)nc4)cc3C2=O)c2c(N3CC4CCC(C3)O4)ccnc21`, the Ratio IC50 in test [2] was 76.6. In the test on LNCaP, this molecule showed an IC50 above 60000 nM.

With `Cn1cc(/C=C2\Oc3ccc(NC(=O)Nc4cccnc4)cc3C2=O)c2c(N3CCC(C(=O)NCc4cccnc4)CC3)ccnc21`, the IC50 is 9 nM in test [3], 4040 nM in test [1] and 60000 nM with LNCaP. Moreover, in test [2], the Ratio IC50 stood at 450.

Turning to `Cn1cc(/C=C2\Oc3ccc(NC(=O)Nc4cccnc4)cc3C2=O)c2c(N3CCC(C(=O)N4CCCC4)CC3)ccnc21`, the Ratio IC50 in test [2] amounted to 111. The molecule also gave an IC50 with LNCaP of 12 nM.

In the test on LNCaP, `CCNC(=O)Nc1ccc2c(c1)C(=O)/C(=C/c1cn(C)c3nccc(N4CC5CCC(C4)O5)c13)O2` gave an IC50 of 2800 nM. That is a single-digit micromolar value.

`CN(C(=O)C1CCN(c2ccnc3c2c(/C=C2\Oc4ccc(NC(=O)Nc5cccnc5)cc4C2=O)cn3C)CC1)c1cccnc1` came in with an IC50 in the test with LNCaP of 300 nM.

With `CN(Cc1ccccn1)C(=O)C1CCN(c2ccnc3c2c(/C=C2\Oc4ccc(NC(=O)Nc5cccnc5)cc4C2=O)cn3C)CC1`, inhibition in the test with LNCaP was half-maximal at 40 nM (IC50). Against the preceding molecule, the IC50 is about 7.5-fold lower.

As to `CCN(CC)C(=O)C1CCN(c2ccnc3c2c(/C=C2\Oc4ccc(NC(=O)Nc5cccnc5)cc4C2=O)cn3C)CC1`, half-maximal inhibition in the test with LNCaP (IC50) was put at 50 nM. This IC50 and that of the molecule before are within 1.5-fold of each other.

With `CN(C)CCNC(=O)Nc1ccc2c(c1)C(=O)/C(=C/c1cn(C)c3nccc(N4CC5CCC(C4)O5)c13)O2`, it took 60 nM to reach half-maximal inhibition in the test with LNCaP (IC50). This IC50 and that of the molecule before are within 1.5-fold of each other.

Regarding `Cn1cc(/C=C2\Oc3ccc(NC(=O)Nc4cccnc4)cc3C2=O)c2c(N3C4CCC3COC4)ccnc21`, the IC50 in test [1] was 128 nM; with LNCaP it was 6 nM. The Ratio IC50 in test [2] was 3.

The molecule `CN(Cc1cccnc1)C(=O)C1CCN(c2ccnc3c2c(/C=C2\Oc4ccc(NC(=O)Nc5cccnc5)cc4C2=O)cn3C)CC1` displayed an IC50 in the test with LNCaP of 3200 nM. That is a single-digit micromolar value.

Consider `CN(Cc1ccncc1)C(=O)C1CCN(c2ccnc3c2c(/C=C2\Oc4ccc(NC(=O)Nc5cccnc5)cc4C2=O)cn3C)CC1`, for which the Ratio IC50 in test [2] turned out to be 132. The molecule further yielded an IC50 in the test on LNCaP of 23 nM.

With `CN1CCN(C(=O)C2CCN(c3ccnc4c3c(/C=C3\Oc5ccc(NC(=O)Nc6cccnc6)cc5C3=O)cn4C)CC2)CC1`, the IC50 stood at 70 nM in test [3] and 330 nM in the test with LNCaP. Moreover, the Ratio IC50 in test [2] came to 65.7.

For `Cn1cc(/C=C2\Oc3ccc(NC(=O)Nc4cccnc4)cc3C2=O)c2c(N3CCC(C(=O)N4C5CCC4COC5)CC3)ccnc21`, the half-maximal inhibitory concentration (IC50) with LNCaP was 200 nM.

As for `Cn1cc(/C=C2\Oc3cccc(O)c3C2=O)c2c(-c3ccccc3)ccnc21`, the Ratio IC50 in test [2] came out at 25.4. The IC50 in the test on LNCaP stood at 200 nM.

Consider `CN(C)C1CCN(C(=O)C2CCN(c3ccnc4c3c(/C=C3\Oc5ccc(NC(=O)Nc6cccnc6)cc5C3=O)cn4C)CC2)C1` (configuration not stated), for which the IC50 in test [3] is 11 nM; in test [1], above 10000 nM; in the test on LNCaP, 2300 nM.

As for `CN(Cc1ccccc1)C(=O)C1CCN(c2ccnc3c2c(/C=C2\Oc4ccc(NC(=O)Nc5cccnc5)cc4C2=O)cn3C)CC1`, the IC50 in test [3] was 102 nM; in test [1], above 10000 nM; in the test with LNCaP, 20 nM.

On to `CNC(=O)Nc1cccc2c1C(=O)/C(=C/c1cn(C)c3nccc(-c4ccccc4)c13)O2`, for which the IC50 in the test with LNCaP is above 60000 nM.

Turning to `Cn1cc(/C=C2\Oc3ccc(NC(=O)Nc4cccnc4)cc3C2=O)c2c(N3CCC(C(=O)N4CCCCC4)CC3)ccnc21`, the Ratio IC50 in test [2] amounted to 12.6. In addition, inhibition in the test with LNCaP was half-maximal at 18 nM (IC50).

With `Cn1cc(/C=C2\Oc3ccc(NC(=O)Nc4cccnc4)cc3C2=O)c2c(N3CCC(C(=O)N4CCOCC4)CC3)ccnc21`, the IC50 stood at 2660 nM in test [1] and 3200 nM in the test on LNCaP. Also, the Ratio IC50 in test [2] was determined as 148.

For `CN(C)C(=O)C1CCN(c2ccnc3c2c(/C=C2\Oc4ccc(NC(=O)Nc5cccnc5)cc4C2=O)cn3C)CC1`, the IC50 with LNCaP stood at 80 nM.

Take `Cn1cc(/C=C2\Oc3ccc(NC(=O)Nc4cccnc4)cc3C2=O)c2c(N3CC4CCC(C3)O4)ccnc21`: the IC50 with LNCaP was 15 nM.

On to `CNC(=O)Nc1ccc2c(c1)C(=O)/C(=C/c1cn(C)c3nccc(-c4ccccc4)c13)O2`, for which, in the test with LNCaP, half-maximal inhibition (IC50) required 60000 nM.
